Values quoted from earlier work, collected in paper PMC9234964, “Design, Synthesis, and Biological Evaluation of a Novel Series of 4-Guanidinobenzoate Derivatives as Enteropeptidase Inhibitors with Low Systemic Exposure for the Treatment of Obesity” (Journal of Medicinal Chemistry, 2022).

How the values were obtained:
enteropeptidase = test system: enteropeptidase; design: method as in PMID 33033171; conditions: cited from earlier work
DIO mice = conditions: cited from earlier work

CN(C)C(=O)COC(=O)Cc1ccc(OC(=O)c2ccc(NC(=N)N)cc2)cc1 [camostat]
enteropeptidase activity (enteropeptidase): inhibited enteropeptidase activity
body weight (DIO mice): induced body weight loss
